pEC50: −log10 of the molar value.
Legend:
[1] = biological target: Beta-3 adrenergic receptor (Homo sapiens, UniProt P13945); test: Agonist activity at human cloned adrenergic beta3 receptor expressed in CHO cells assessed as increase in cAMP production after 2 days by radioimmunoassay; assay type: functional, cell-based
[2] = biological target: Beta-2 adrenergic receptor (Homo sapiens, UniProt P07550)
Description: Agonist activity at human cloned adrenergic beta2 receptor expressed in CHO cells assessed as increase in cAMP production after 2 days by radioimmunoassay

[3] = biological target: Beta-1 adrenergic receptor (Homo sapiens, UniProt P08588)
Description: Agonist activity at human cloned adrenergic beta-1 receptor expressed in CHO cells assessed as increase in cAMP production after 2 days by radioimmunoassay

Mus musculus = test: Hypoglycemic activity in diabetic kk mouse assessed as reduction in plasma glucose levels at 30 mg/kg, po administered for 4 days measured after 15 to 18 hrs by glucose oxidase method; assay type: functional; set-up: scale not given: the % may be the effect or the level left

Sequence of Beta-1 adrenergic receptor (P08588 whole entry): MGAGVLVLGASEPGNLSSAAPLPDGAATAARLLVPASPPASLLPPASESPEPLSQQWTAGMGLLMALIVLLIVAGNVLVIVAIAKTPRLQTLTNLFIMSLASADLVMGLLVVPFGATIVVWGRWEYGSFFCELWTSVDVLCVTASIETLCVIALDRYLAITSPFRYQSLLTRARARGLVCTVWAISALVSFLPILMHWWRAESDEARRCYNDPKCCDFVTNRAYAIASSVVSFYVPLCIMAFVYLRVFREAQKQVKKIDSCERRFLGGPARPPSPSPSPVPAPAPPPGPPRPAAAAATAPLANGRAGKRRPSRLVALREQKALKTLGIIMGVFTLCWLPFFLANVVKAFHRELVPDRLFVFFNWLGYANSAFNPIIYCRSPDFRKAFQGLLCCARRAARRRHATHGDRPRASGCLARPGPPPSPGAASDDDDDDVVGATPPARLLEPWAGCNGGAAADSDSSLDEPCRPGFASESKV
Sequence of Beta-2 adrenergic receptor (P07550 whole entry): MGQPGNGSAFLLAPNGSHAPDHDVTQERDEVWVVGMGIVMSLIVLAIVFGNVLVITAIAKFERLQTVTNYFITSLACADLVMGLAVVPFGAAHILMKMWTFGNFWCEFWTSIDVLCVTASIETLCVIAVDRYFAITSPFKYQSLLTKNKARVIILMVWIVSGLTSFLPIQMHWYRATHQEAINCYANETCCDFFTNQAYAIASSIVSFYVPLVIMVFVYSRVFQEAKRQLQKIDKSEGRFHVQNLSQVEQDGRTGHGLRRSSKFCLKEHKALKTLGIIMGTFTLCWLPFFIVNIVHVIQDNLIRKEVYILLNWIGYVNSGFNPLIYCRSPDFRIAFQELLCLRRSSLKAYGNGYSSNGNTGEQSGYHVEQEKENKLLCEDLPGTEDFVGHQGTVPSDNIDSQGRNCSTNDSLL
Sequence of Beta-3 adrenergic receptor (P13945 whole entry): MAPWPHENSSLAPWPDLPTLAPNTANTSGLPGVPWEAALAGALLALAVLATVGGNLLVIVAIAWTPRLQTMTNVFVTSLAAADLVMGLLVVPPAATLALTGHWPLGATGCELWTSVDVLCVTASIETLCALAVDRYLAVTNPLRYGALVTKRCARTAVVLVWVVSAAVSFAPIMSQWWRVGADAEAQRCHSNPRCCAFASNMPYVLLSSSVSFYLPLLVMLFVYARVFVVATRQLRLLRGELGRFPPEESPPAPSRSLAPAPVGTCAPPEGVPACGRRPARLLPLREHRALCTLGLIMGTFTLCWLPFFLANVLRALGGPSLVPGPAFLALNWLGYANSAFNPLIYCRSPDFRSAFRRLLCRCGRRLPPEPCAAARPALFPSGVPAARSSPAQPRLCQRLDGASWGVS

Compound `O=S(=O)(Nc1ccc(CCNC[C@H](O)COc2ccc(O)cc2)cc1)c1ccccc1` has a pEC50 [1] of 7.11, a pEC50 [2] of under 4.00 and a pEC50 [3] of 5.80.
In the case of `O=C(Cc1ccccn1)Nc1ccc(CCNC[C@H](O)COc2ccc(O)cc2)cc1`, the pEC50 [1] was 6.54, the Activity (Mus musculus) was 32% and the pEC50 [2] was under 4.00. The pEC50 [3] was 5.57.
For `O=C(Cc1cccs1)Nc1ccc(CCNC[C@H](O)COc2ccc(O)cc2)cc1`, the pEC50 [1] was 6.30, the pEC50 [2] was under 4.00 and the pEC50 [3] was 6.26.
`NC(C(=O)Nc1ccc(CCNC[C@H](O)COc2ccc(O)cc2)cc1)c1ccccc1` (some centres not stated) was tested, and the pEC50 [1] was 6.02, the pEC50 [2] was under 4.00 and the pEC50 [3] was 6.18.
In the case of `O=C(Cc1ccccc1)Nc1ccc(CCNC[C@H](O)COc2ccc(O)cc2)cc1`, the pEC50 [1] was 5.77, the pEC50 [2] was under 4.00 and the pEC50 [3] was 6.12.
`COc1ccc(CC(=O)Nc2ccc(CCNC[C@H](O)COc3ccc(O)cc3)cc2)cc1` showed a pEC50 [1] of 5.77, a pEC50 [2] of under 4.00 and a pEC50 [3] of 6.55.
`O=C(Nc1ccc(CCNC[C@H](O)COc2ccc(O)cc2)cc1)C(c1ccccc1)c1ccccc1` showed a pEC50 [1] of 6.92, a pEC50 [2] of under 4.00 and a pEC50 [3] of 6.74.
In the case of `O=C(Nc1ccc(CCNC[C@H](O)COc2ccc(O)cc2)cc1)C(O)c1ccccc1` (some centres not stated), the pEC50 [1] was 6.02, the pEC50 [2] was under 4.00 and the pEC50 [3] was 6.23.
In the case of `O=C(Cc1ccsc1)Nc1ccc(CCNC[C@H](O)COc2ccc(O)cc2)cc1`, the pEC50 [1] was 6.26, the pEC50 [2] was under 4.00 and the pEC50 [3] was 6.31.
For `O=C(Cc1ccc2ccccc2n1)Nc1ccc(CCNC[C@H](O)COc2ccc(O)cc2)cc1`, the pEC50 [1] was 6.19, the pEC50 [2] was under 4.00 and the pEC50 [3] was 5.77.
With `O=C(CC1C=Nc2ccccc21)Nc1ccc(CCNC[C@H](O)COc2ccc(O)cc2)cc1` (some centres not stated) the pEC50 [1] was 6.31, the pEC50 [2] was under 4.00 and the pEC50 [3] was 6.26.
`O=C(Cc1cnccn1)Nc1ccc(CCNC[C@H](O)COc2ccc(O)cc2)cc1` gave a pEC50 [1] of 7.08, an Activity (Mus musculus) of 13% and a pEC50 [2] of under 4.00. For the same compound, the pEC50 [3] was 5.51.
`COc1ccccc1CC(=O)Nc1ccc(CCNC[C@H](O)COc2ccc(O)cc2)cc1` gave a pEC50 [1] of 6.44, a pEC50 [2] of under 4.00 and a pEC50 [3] of 6.02.
Work on `COc1cccc(CC(=O)Nc2ccc(CCNC[C@H](O)COc3ccc(O)cc3)cc2)c1` yielded a pEC50 [1] of 6.25, a pEC50 [2] of under 4.00 and a pEC50 [3] of 6.15.
`O=C(Cc1ccc2ccccc2c1)Nc1ccc(CCNC[C@H](O)COc2ccc(O)cc2)cc1` gave a pEC50 [1] of 6.62, a pEC50 [2] of under 4.00 and a pEC50 [3] of 6.82.
Compound `O=C(Cc1cccc(Cl)c1)Nc1ccc(CCNC[C@H](O)COc2ccc(O)cc2)cc1` has a pEC50 [1] of 6.05, a pEC50 [2] of under 4.00 and a pEC50 [3] of 7.08.
`O=C(Cc1ccncc1)Nc1ccc(CCNC[C@H](O)COc2ccc(O)cc2)cc1` showed a pEC50 [1] of 6.28, a pEC50 [2] of under 4.00 and a pEC50 [3] of 6.59.
Work on `O=C(Cc1cccnc1)Nc1ccc(CCNC[C@H](O)COc2ccc(O)cc2)cc1` yielded a pEC50 [1] of 5.82, a pEC50 [2] of under 4.00 and a pEC50 [3] of 6.04.
`O=C(Cc1cc2ccccc2cn1)Nc1ccc(CCNC[C@H](O)COc2ccc(O)cc2)cc1` was tested, and the pEC50 [1] was 6.85, the pEC50 [2] was under 4.00 and the pEC50 [3] was 6.46.
For `O=C(Cc1ncccn1)Nc1ccc(CCNC[C@H](O)COc2ccc(O)cc2)cc1`, the pEC50 [1] was 6.96, the Activity (Mus musculus) was 20% and the pEC50 [2] was under 4.00. For the same compound, the pEC50 [3] was under 4.00.
`O=C(Cc1ccc(Cl)cc1)Nc1ccc(CCNC[C@H](O)COc2ccc(O)cc2)cc1` gave a pEC50 [1] of 5.92, a pEC50 [2] of under 4.00 and a pEC50 [3] of 6.72.
Work on `O=C(Cc1ccccc1Cl)Nc1ccc(CCNC[C@H](O)COc2ccc(O)cc2)cc1` yielded a pEC50 [1] of 6.13, a pEC50 [2] of under 4.00 and a pEC50 [3] of 6.14.
With `O=C(Cc1cccc2ccccc12)Nc1ccc(CCNC[C@H](O)COc2ccc(O)cc2)cc1` the pEC50 [1] was 6.33, the pEC50 [2] was under 4.00 and the pEC50 [3] was 6.22.
